Assay: xn = mol fraction of the nth substance listed
Conditions: 101.3 kPa, Liquid

OCCCCO [1,4-butanediol] + O
Conditions | mass density [kg/m3] | viscosity [mPa·s]
293.15 K, x1 = 0.0218 | 1001.44 | 1.792
293.15 K, x1 = 0.0478 | 1005.97 | 2.65
293.15 K, x1 = 0.0789 | 1010.98 | 3.889
293.15 K, x1 = 0.1175 | 1015.71 | 5.788
293.15 K, x1 = 0.1665 | 1019.86 | 8.755
293.15 K, x1 = 0.2305 | 1022.86 | 11.86
293.15 K, x1 = 0.3179 | 1024.32 | 19.07
293.15 K, x1 = 0.4441 | 1024.18 | 31.72
293.15 K, x1 = 0.6426 | 1021.57 | 56.69
293.15 K, x1 = 0.7917 | 1019.04 | 73.61
293.15 K, x1 = 0.8663 | 1017.74 | 80.53
293.15 K, x1 = 1 | 1015.76 | 90.33
303.15 K, x1 = 0.0218 | 998.53 | 1.418
303.15 K, x1 = 0.0478 | 1002.4 | 1.957
303.15 K, x1 = 0.0789 | 1006.62 | 2.756
303.15 K, x1 = 0.1175 | 1010.6 | 3.954
303.15 K, x1 = 0.1665 | 1014.11 | 5.775
303.15 K, x1 = 0.2305 | 1016.62 | 7.633
303.15 K, x1 = 0.3179 | 1017.88 | 12.09
303.15 K, x1 = 0.4441 | 1017.65 | 19.66
303.15 K, x1 = 0.6426 | 1015.15 | 34.96
303.15 K, x1 = 0.7917 | 1012.77 | 45.5
303.15 K, x1 = 0.8663 | 1011.48 | 49.82
303.15 K, x1 = 1 | 1009.54 | 55.98
313.15 K, x1 = 0.0218 | 994.86 | 1.176
313.15 K, x1 = 0.0478 | 998.21 | 1.522
313.15 K, x1 = 0.0789 | 1001.79 | 2.053
313.15 K, x1 = 0.1175 | 1005.16 | 2.835
313.15 K, x1 = 0.1665 | 1008.13 | 4.008
313.15 K, x1 = 0.2305 | 1010.28 | 5.198
313.15 K, x1 = 0.3179 | 1011.36 | 8.018
313.15 K, x1 = 0.4441 | 1011.09 | 12.78
313.15 K, x1 = 0.6426 | 1008.76 | 22.43
313.15 K, x1 = 0.7917 | 1006.4 | 29.65
313.15 K, x1 = 0.8663 | 1005.15 | 32.53
313.15 K, x1 = 1 | 1003.31 | 35.74
323.15 K, x1 = 0.0218 | 990.45 | 0.981
323.15 K, x1 = 0.0478 | 993.4 | 1.222
323.15 K, x1 = 0.0789 | 996.45 | 1.573
323.15 K, x1 = 0.1175 | 999.34 | 2.124
323.15 K, x1 = 0.1665 | 1001.87 | 2.909
323.15 K, x1 = 0.2305 | 1003.72 | 3.683
323.15 K, x1 = 0.3179 | 1004.68 | 5.573
323.15 K, x1 = 0.4441 | 1004.42 | 8.706
323.15 K, x1 = 0.6426 | 1002.32 | 14.6
323.15 K, x1 = 0.7917 | 1000 | 19.29
323.15 K, x1 = 0.8663 | 998.84 | 21.11
323.15 K, x1 = 1 | 997.14 | 23.63
333.15 K, x1 = 0.0218 | 985.4 | 0.871
333.15 K, x1 = 0.0478 | 987.96 | 1.042
333.15 K, x1 = 0.0789 | 990.59 | 1.281
333.15 K, x1 = 0.1175 | 993.09 | 1.652
333.15 K, x1 = 0.1665 | 995.27 | 2.191
333.15 K, x1 = 0.2305 | 996.89 | 2.705
333.15 K, x1 = 0.3179 | 997.78 | 4.017
333.15 K, x1 = 0.4441 | 997.58 | 6.143
333.15 K, x1 = 0.6426 | 995.75 | 10.12
333.15 K, x1 = 0.7917 | 993.6 | 13.04
333.15 K, x1 = 0.8663 | 992.48 | 14.29
333.15 K, x1 = 1 | 990.93 | 16.17
343.15 K, x1 = 0.0218 | 979.61 | 0.783
343.15 K, x1 = 0.0478 | 981.88 | 0.905
343.15 K, x1 = 0.0789 | 984.16 | 1.081
343.15 K, x1 = 0.1175 | 986.37 | 1.338
343.15 K, x1 = 0.1665 | 988.29 | 1.719
343.15 K, x1 = 0.2305 | 989.74 | 2.055
343.15 K, x1 = 0.3179 | 990.6 | 2.991
343.15 K, x1 = 0.4441 | 990.49 | 4.471
343.15 K, x1 = 0.6426 | 988.97 | 7.211
343.15 K, x1 = 0.7917 | 987.21 | 9.223
343.15 K, x1 = 0.8663 | 986.17 | 10.11
343.15 K, x1 = 1 | 984.81 | 11.45
353.15 K, x1 = 0.0218 | 973.52 | 0.723
353.15 K, x1 = 0.0478 | 975.53 | 0.809
353.15 K, x1 = 0.0789 | 977.47 | 0.94
353.15 K, x1 = 0.1175 | 979.3 | 1.108
353.15 K, x1 = 0.1665 | 981.05 | 1.381
353.15 K, x1 = 0.2305 | 982.41 | 1.804
353.15 K, x1 = 0.3179 | 983.3 | 2.283
353.15 K, x1 = 0.4441 | 983.33 | 3.358
353.15 K, x1 = 0.6426 | 982.14 | 5.276
353.15 K, x1 = 0.7917 | 980.68 | 6.743
353.15 K, x1 = 0.8663 | 979.77 | 7.321
353.15 K, x1 = 1 | 978.59 | 8.28
